Assay results: ChEMBL document CHEMBL6109142 (J Med Chem, 2025)
Calls of active or inactive are those of the source. No cut-off for these calls is given here.

Columns and labels:
SARS-CoV-2 [1] = assay: (§1) Antiviral activity against SARS-CoV-2 pseudotyped with delta spike protein infected in human Calu-3 cells assessed as prevention of virus-like particle cellular entry at 300 nM preincubated with cells for 3 hrs followed by viral infection and measured after 72 hrs by ONE-Glo-Ex luciferase assay; format: functional, organism-based; conditions: Severe acute respiratory syndrome coronavirus 2, time 75.0 hrs
SARS-CoV-2 [2] = assay: as §1, with “assay relative to control” for “assay”; format: functional, Severe acute respiratory syndrome coronavirus 2; conditions: time 75 hrs
[3] = biological target: T1, Transmembrane protease serine 2 (Homo sapiens, UniProt O15393); assay: Inhibition of recombinant TMPRSS2 (unknown origin) extracted from baculovirus infected in Sf9 cells using Boc-QAR-AMC as substrate measured after 1 hr by fluorescence based analysis
[4] = biological target: T1, Transmembrane protease serine 2; assay: Inhibition of recombinant TMPRSS2 (unknown origin) extracted from baculovirus infected in Sf9 cells assessed as residual activity using Boc-QAR-AMC as substrate at 1 nM measured after 1 hr by fluorescence based analysis relative to control
SARS-CoV-2 [5] = assay: Antiviral activity against SARS-CoV-2 EG.5.1 infected in human Calu-3 cells assessed as reduction in residual intracellular nucleocapsid value at 1 uM preincubated with cells for 3 hrs followed by viral infection and measured after 48 hrs by immunostaining based analysis; format: functional, organism-based; conditions: Severe acute respiratory syndrome coronavirus 2, time 51.0 hrs
Calu-3 = assay: Cytotoxicity against human Calu-3 cells assessed as cell viability at 10 uM measured after 72 hrs by luminescence based Cell-Titer-Glo assay; format: toxicity; conditions: calu-3, 72 h
SARS-CoV-2 [6] = assay: Antiviral activity against SARS-CoV-2 EG.5.1 infected in human Calu-3 cells preincubated with cells for 3 hrs followed by viral infection and measured after 48 hrs by immunostaining based analysis; format: functional, organism-based; conditions: Severe acute respiratory syndrome coronavirus 2, EG.5.1, Calu-3
[7] = biological target: T2, Suppressor of tumorigenicity 14 protein (Homo sapiens, UniProt Q9Y5Y6); assay: Inhibition of Matriptase (unknown origin) assessed as inhibition constant using Boc-QAR-AMC as substrate incubated for 1 hr by fluorescence based analysis
T2 sequence (Q9Y5Y6 whole entry): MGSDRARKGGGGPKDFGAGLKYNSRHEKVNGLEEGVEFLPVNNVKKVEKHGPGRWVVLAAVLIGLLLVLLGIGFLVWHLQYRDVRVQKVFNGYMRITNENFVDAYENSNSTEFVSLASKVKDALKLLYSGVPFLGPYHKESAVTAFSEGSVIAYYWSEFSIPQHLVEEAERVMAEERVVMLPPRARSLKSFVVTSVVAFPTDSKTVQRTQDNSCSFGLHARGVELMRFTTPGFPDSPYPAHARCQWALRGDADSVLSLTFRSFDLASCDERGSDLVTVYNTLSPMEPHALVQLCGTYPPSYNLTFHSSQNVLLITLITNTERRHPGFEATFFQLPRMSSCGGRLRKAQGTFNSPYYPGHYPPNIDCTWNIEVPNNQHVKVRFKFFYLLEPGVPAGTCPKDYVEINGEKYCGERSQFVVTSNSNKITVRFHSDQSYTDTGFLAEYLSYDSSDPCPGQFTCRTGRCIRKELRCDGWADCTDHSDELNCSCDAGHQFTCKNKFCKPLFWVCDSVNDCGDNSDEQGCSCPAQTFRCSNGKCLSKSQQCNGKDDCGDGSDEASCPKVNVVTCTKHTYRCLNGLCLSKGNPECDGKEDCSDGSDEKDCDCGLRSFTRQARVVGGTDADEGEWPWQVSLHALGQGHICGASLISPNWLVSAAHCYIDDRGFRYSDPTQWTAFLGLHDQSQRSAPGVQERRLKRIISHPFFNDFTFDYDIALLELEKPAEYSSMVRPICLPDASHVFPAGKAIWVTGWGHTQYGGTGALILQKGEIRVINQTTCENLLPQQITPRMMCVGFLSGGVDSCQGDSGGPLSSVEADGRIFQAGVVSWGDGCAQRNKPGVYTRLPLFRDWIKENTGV

[8] = biological target: T1, Transmembrane protease serine 2; assay: Inhibition of recombinant das TMPRSS2 (unknown origin) extracted from baculovirus infected in Sf9 cells assessed as inhibition constant using Boc-QAR-AMC as substrate measured after 1 hr by fluorescence based analysis
SARS-CoV-2 [9] = assay: Antiviral activity against SARS-CoV-2 JN.1 infected in human Calu-3 cells preincubated with cells for 3 hrs followed by viral infection and measured after 48 hrs by immunostaining based analysis; format: functional, organism-based; conditions: Severe acute respiratory syndrome coronavirus 2, JN.1, Calu-3
Procathepsin L = Procathepsin L (Homo sapiens, UniProt P07711); assay: Inhibition of recombinant human C-terminal 6 his-tagged Cathepsin L assessed as inhibition constant using Z-LR-AMC as peptide substrate incubated for 1 hr by fluorescence based analysis
SARS-CoV-2 [10] = assay: Antiviral activity against SARS-CoV-2 EG.5.1 infected in human Calu-3 cells assessed as reduction in residual intracellular nucleocapsid value at 1 uM preincubated with cells for 3 hrs followed by viral infection and measured after 48 hrs by immunostaining based analysis relative to control; format: functional, Severe acute respiratory syndrome coronavirus 2; conditions: time 51 hrs
[11] = Cytotoxicity against human Calu-3 cells assessed as cell viability measured after 72 hrs by luminescence based Cell-Titer-Glo assay; format: toxicity
Coagulation factor X = Coagulation factor X (Homo sapiens, UniProt P00742); assay: Inhibition of recombinant human C-terminal 10 his-tagged FXa extracted from baculovirus infected in Sf9 cells assessed as inhibition constant using Mca-RPKPVE-Nval-WRK(Dnp)-NH2 as substrate incubated for 1 hr by fluorescence based analysis
Coagulation factor X, sequence (P00742 41-179 limits assumed): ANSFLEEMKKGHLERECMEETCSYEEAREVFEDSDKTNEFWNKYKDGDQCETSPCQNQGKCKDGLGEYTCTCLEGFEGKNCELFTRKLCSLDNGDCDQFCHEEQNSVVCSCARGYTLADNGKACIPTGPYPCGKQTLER
Coagulation factor X, sequence (P00742 235-488 limits assumed): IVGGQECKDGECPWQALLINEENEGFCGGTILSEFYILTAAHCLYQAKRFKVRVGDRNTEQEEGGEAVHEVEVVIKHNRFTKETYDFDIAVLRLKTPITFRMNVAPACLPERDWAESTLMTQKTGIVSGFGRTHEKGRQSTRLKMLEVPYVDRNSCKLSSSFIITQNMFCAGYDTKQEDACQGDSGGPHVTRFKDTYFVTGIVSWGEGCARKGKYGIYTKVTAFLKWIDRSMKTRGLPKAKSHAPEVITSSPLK

T1 sequence (O15393 1-255 limits assumed): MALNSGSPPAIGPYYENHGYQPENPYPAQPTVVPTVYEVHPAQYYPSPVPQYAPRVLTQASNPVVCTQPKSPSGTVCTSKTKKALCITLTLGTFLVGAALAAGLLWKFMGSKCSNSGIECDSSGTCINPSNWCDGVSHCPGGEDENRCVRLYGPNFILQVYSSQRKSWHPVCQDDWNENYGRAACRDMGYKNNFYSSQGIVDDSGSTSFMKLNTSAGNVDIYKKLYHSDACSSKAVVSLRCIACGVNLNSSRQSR
T1 sequence (O15393 256-492 limits assumed): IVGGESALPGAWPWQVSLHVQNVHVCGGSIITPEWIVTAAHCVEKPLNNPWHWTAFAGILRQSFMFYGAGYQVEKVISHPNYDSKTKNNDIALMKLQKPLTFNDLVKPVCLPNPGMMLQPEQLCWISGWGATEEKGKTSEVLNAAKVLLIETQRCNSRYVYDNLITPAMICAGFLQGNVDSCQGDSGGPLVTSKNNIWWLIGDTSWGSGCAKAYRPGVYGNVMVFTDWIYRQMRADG

SMILES | Activity (SARS-CoV-2 [1]) | Activity (SARS-CoV-2 [2]) [%] | IC50 [3] [nM] | Activity [4] [%] | Activity (SARS-CoV-2 [5]) | Activity (Calu-3) | EC50 (SARS-CoV-2 [6]) [nM] | Ki [7] [nM] | Ki [8] [nM] | EC50 (SARS-CoV-2 [9]) [nM] | inhibition (Procathepsin L) | Activity (SARS-CoV-2 [10]) [%] | Ki (Procathepsin L) [nM] | CC50 at 72 h [11] [nM] | Ki (Coagulation factor X) [nM]
CC(=O)N[C@@H](CCC(N)=O)C(=O)N[C@@H](Cc1ccccc1)C(=O)N[C@@H](CCCNC(=N)N)C(=O)CN1CCCCC1 | Active | – | – | – | – | – | – | – | – | – | – | – | – | – | –
C[C@H](NC(=O)CCCCNC(=N)N)C(=O)N[C@@H](Cc1ccccc1)C(=O)N[C@@H](CCCNC(=N)N)C(=O)c1nc2ccccc2s1 | – | 14 | 0.66 | 8 | Active | Non-toxic | – | – | – | – | – | – | – | – | –
N=C(N)NCCCCC(=O)N[C@H](CCC(N)=O)C(=O)N[C@@H](Cc1ccccc1)C(=O)N[C@@H](CCCNC(=N)N)C(=O)c1nc2ccccc2s1 | – | 15 | 1.4 | 28 | Active | Non-toxic | – | – | – | – | – | – | – | – | –
CC(=O)N[C@@H](CCC(N)=O)C(=O)N[C@@H](Cc1ccccc1)C(=O)N[C@@H](CCCNC(=N)N)C(=O)c1nccn1C | Active | – | – | – | – | – | – | – | – | – | – | – | – | – | –
N=C(N)NCCCCC(=O)N[C@@H](CC(N)=O)C(=O)N[C@@H](Cc1ccccc1)C(=O)N[C@@H](CCCNC(=N)N)C(=O)c1nc2ccccc2s1 | – | 19 | 0.87 | 11 | Active | Non-toxic | – | – | – | – | – | – | – | – | –
CC(=O)N[C@@H](CCC(N)=O)C(=O)N[C@@H](CC1CCCCC1)C(=O)N[C@@H](CCCNC(=N)N)C(=O)c1nc2ccccc2s1 | – | 13 | 1.3 | 18 | Active | Non-toxic | – | – | – | – | – | – | – | – | –
CC(=O)N[C@@H](CCC(N)=O)C(=O)N[C@@H](Cc1ccccc1)C(=O)N[C@@H](CCCNC(=N)N)C(=O)c1nc2ccccc2[nH]1 | Active | – | – | – | – | – | – | – | – | – | – | – | – | – | –
C[C@H](NC(=O)[C@H](CCC(N)=O)NC(=O)CCCCNC(=N)N)C(=O)N[C@@H](CCCNC(=N)N)C(=O)c1nc2ccccc2s1 | – | 12 | 2.4 | 46 | Active | Non-toxic | 11.9 | 0.16 | 0.53 | 2.8 | inactive | – | – | – | –
N=C(N)NCCCCC(=O)N[C@@H](CCC(N)=O)C(=O)N[C@@H](Cc1ccccc1)C(=O)N[C@@H](CCCNC(=N)N)C(=O)c1nccs1 | – | 20 | 0.74 | 20 | Active | Non-toxic | – | – | – | – | – | 14 | – | – | –
N=C(N)NCCCCC(=O)N[C@@H](CCC(N)=O)C(=O)N[C@@H](CO)C(=O)N[C@@H](CCCNC(=N)N)C(=O)c1nc2ccccc2s1 | – | – | 3.2 | 19 | Active | Non-toxic | – | – | – | – | – | – | – | – | –
N=C(N)NCCC[C@H](NC(=O)[C@H](Cc1ccccc1)NC(=O)[C@@H]1CCC(=O)NCCCC(=O)N1)C(=O)c1nc2ccccc2s1 | – | 20 | 1 | 3 | Active | Non-toxic | – | – | – | – | – | – | – | – | –
N=C(N)NCCCCC(=O)N[C@@H](CCC(N)=O)C(=O)N[C@@H](Cc1ccccc1)C(=O)N[C@@H](CCCNC(=N)N)C(=O)c1nc2ccccc2s1 | – | 13 | 1.4 | 16 | Active | Non-toxic | – | – | – | – | – | – | – | – | –
CN(C)C(=O)CC[C@H](NC(=O)CCCCNC(=N)N)C(=O)N[C@@H](Cc1ccccc1)C(=O)N[C@@H](CCCNC(=N)N)C(=O)c1nc2ccccc2s1 | – | 18 | 0.62 | 16 | Active | Non-toxic | – | – | – | – | – | – | – | – | –
CS(=O)(=O)N[C@@H](CCC(N)=O)C(=O)N[C@@H](Cc1ccccc1)C(=O)N[C@@H](CCCNC(=N)N)C(=O)c1nc2ccccc2s1 | – | 16 | – | 13 | Active | Non-toxic | 29.1 | – | – | 3.3 | inactive | – | – | – | –
CC(C)[C@H](NC(=O)[C@H](Cc1cscn1)NC(=O)CCc1ccccc1)C(=O)N[C@@H](CCCNC(=N)N)C(=O)c1nc2ccccc2s1 | – | 15 | 3 | 34 | Active | Non-toxic | – | – | – | – | – | – | – | – | –
N=C(N)NCCC[C@H](NC(=O)OCc1ccccc1)C(=O)N[C@@H](CCC(N)=O)C(=O)N[C@@H](Cc1ccccc1)C(=O)N[C@@H](CCCNC(=N)N)C(=O)c1nc2ccccc2s1 | – | 33 | 1.4 | 7 | Active | Non-toxic | – | – | – | – | – | – | – | – | –
CCOC(=O)N[C@@H](CCCNC(=N)N)C(=O)N[C@@H](CCC(N)=O)C(=O)N[C@@H](Cc1ccccc1)C(=O)N[C@@H](CCCNC(=N)N)C(=O)c1nc2ccccc2s1 | – | 17 | 0.89 | 3 | Active | Non-toxic | 3.9 | – | 0.095 | 1.3 | – | – | 695 | – | –
CS(=O)(=O)N[C@@H](CCC(N)=O)C(=O)N[C@@H](Cc1ccccc1)C(=O)N[C@@H](CCCNC(=N)N)C(=O)c1nccs1 | – | 14 | 0.87 | 11 | Active | Non-toxic | 21.7 | – | – | 8.5 | inactive | – | – | 110000 | 9.2
COCCC(=O)N[C@@H](CCC(N)=O)C(=O)N[C@@H](Cc1ccccc1)C(=O)N[C@@H](CCCNC(=N)N)C(=O)c1nc2ccccc2s1 | – | 17 | 0.59 | 2 | Active | Non-toxic | 4.1 | – | – | 1.5 | inactive | – | – | – | 102
CN(C)C(=O)COC(=O)Cc1ccc(OC(=O)c2ccc(NC(=N)N)cc2)cc1 [CAMOSTAT] | – | – | – | – | – | – | 201 | – | – | 7.5 | – | – | – | 110000 | –
N=C(N)NCCC[C@H](NC(=O)[C@H](Cc1ccccc1)NC(=O)[C@H](CCC(N)=O)NC(=O)CCO)C(=O)c1nc2ccccc2s1 | – | 24 | 1.4 | 10 | Active | Non-toxic | – | – | – | – | – | – | – | – | –
N=C(N)NCCCCC(=O)N[C@@H](Cc1ccccc1)C(=O)N[C@@H](Cc1ccccc1)C(=O)N[C@@H](CCCNC(=N)N)C(=O)c1nc2ccccc2s1 | – | 23 | 0.66 | 10 | Active | Non-toxic | – | – | – | – | – | – | – | – | –
